Measured values taken from patent US9651566B2, “Method for determining the propensity for calcification” (Rheinisch-Westfälische Technische Hochschule Aachen, priority 2011, dated 2017).

How the values were obtained:
[1] = test system: transition of primary CPPs into secondary CPPs; assay: Nephelometer assay in the presence of serum; format: biochemical, human; conditions: for transition rate of primary CPPs into secondary CPPs (T50): in the presence of the substance, cf. FIG. 2A
Experimental: Stock Solutions: 1. NaCl-solution: NaCl 140 mM, 2. Calcium solution: CaCl2 40 mM+Hepes 100 mM+NaCI 140 mM, pH adjusted with NaOH 10 mM to 7.40 at 37° C., 3. […] Na2HP04 19.44 mM+NaH2PO4 4.56 mM+Hepes 100 mM+NaCI 140 mM, pH adjusted with NaOH 10 mM to 7.40 at 37° C. […] These pipetting steps were performed in the following order: 1. NaCl-solution: 20 μl/well, 2. serum 80 μl/well, 3. shaking for 1 minute, 4. phosphate solution 50 μl/well, 5. shaking for 1 minute, 6. calcium solution 50 μl/well, shaking for 1 minute. Air bubbles in the wells were disintegrated with a pocket lighter and the 96-well covered with a […] adhesive sealing film for microplates. […] Assay conditions and Nephelostar® settings: measurement in a thermo constant room at 34.5° C. with the internal radiation of the device turned off. This led to an infernal measurement temperature of 36.5° C. to 37° C. The Nephelostar® was operated and controlled via the Nephelostar provider's Galaxy Software on a Windows Computer platform. The assay was performed with 200 cycles of 1.5 seconds measurement time per well and a position delay of 0.1 seconds in horizontal plate reading mode, adding up to a cycle time of 180 seconds/cycle for our Standard assay. This adds up to a total assay run time of 10 hours per assay. […] After completion of the run, data were transferred to Excel® and transposed from lines into columns. Data columns were copied into the GraphPad Prism® program to generate an XY-graph. Data were then processed by calculating nonlinear regression in the “log(agonist) vs. response-variable slope (four Parameters)” mode using the “robust fit” fitting method. The resulting values obtained for T50 and RNUT50 were further processed as required. We chose physiological conditions for temperature (37° C.) and pH (7.40 at 37° C.), and designed the assay for a final volume of 200 μl per well. These 200 μl consisted of 20 μl NaCl 140 mM, 80 μl serum, 50 μl phosphate 24 mM and 50 μl calcium 40 mM solution which were mixed in this order. […]

[2] = test system: transition of primary CPPs into secondary CPPs; assay: Nephelometry in the absence of serum; format: biochemical; conditions: FIG. 6A

Molecule | transition rate of primary CPPs into secondary CPPs (T50) [1] | other results
[Mg+2] [magnesium] | delayed | 
O=S([O-])([O-])=S.[Na+].[Na+] [sodium thiosulfate] |  | impact on the assay ([1]; spiked to serum in amounts of up to 40 mM): did not have any impact
phosphate | accelerated | 
fetuin A: the strongest intrinsic serum calcification inhibitor (protein, UniProt P02765 19-300; P02765 341-367, looked up) Alpha-2-HS-glycoprotein chain … 1: APHGPGLIYRQPNCDDPETEEAALVAIDYINQNLPWGYKHTLNQIDEVKVWPQQPSGELFEIEIDTLETTCHVLDPTPVARCSVRQLKEHAVEGDCDFQLLKLDGKFSVVYAKCDSSPDSAEDVRKVCQDCPLLAPLNDTRVVHAAKAALAAFNAQNNGSNFQLEEISRAQLVPLPPSTYVEFTVSGTDCVAKEATEAAKCNLLAEKQYGFCKATLSEKLGGAEVAVTCMVFQTQPVSSQPQPEGANEAVPTPVVDPDAPPSPPLGAPGLPPAGSPPDSHVL Alpha-2-HS-glycoprotein chain … 2: TVVQPSVGAAAGPVVPPCPGRIRHFKV |  | influence on the assay (spiked serum components) [2]: significantly influences the assay
